US9340590B2 (priority 2011, dated 2016)

Tests used:
[1] = test system: veratridine-induced spontaneous nociceptive behaviors in male CD-1 mice; conditions: mouse, in vivo
NaV1.7 = conditions: read-out: EC50, impairs fast inactivation; cited from earlier work
[2] = rat, in vivo, 0.1 mg/kg; cited from earlier work
mechanical hyperalgesia = conditions: rat, in vivo; cited from earlier work
[3] = test system: C-fiber compound action potential; conditions: cited from earlier work

Cc1cccc(C)c1OCC(C)N (stereo not drawn) [mexiletine, reference compound]
veratridine-induced paw lifting behavior [1]: significantly reversed

GVRDAYIADDKNCVYTCASNGYCNTECTKNGAESGYCQWIGRYGNACWCIKLPDEVPIRIPGKCR [OD1]
EC50 (NaV1.7): 4.5 nM

YCQKWMWTCDSERKCCEGMVCRLWCKKKLW [ProTx-II, YCQKWMWTCDSERKCCEGMVCRLWCKKKLW]
tolerability in rats [2]: lethal | efficacy in a mechanical hyperalgesia study (mechanical hyperalgesia): not efficacious | C-fiber compound action potential [3]: completely blocked | action potential propagation [3]: little effect
